According to ChEMBL document CHEMBL1157481, “Microwave-assisted synthesis of 5-aminopyrazol-4-yl ketones and the p38(MAPK) inhibitor RO3201195 for study in Werner syndrome cells” (Bioorg Med Chem Lett, 2008):
The source made the active and inactive calls. The calls are words filed in the database; no cut-off is given here.

Target: Mitogen-activated protein kinase 9 (Homo sapiens) (UniProt P45984)
Experiment: Inhibition of JNK2 in hTERT-immortalized human HCA2 cells assessed as c-jun phosphorylation upto 50 uM by ELISA in presence of anisomycin
Type: cell-based

Sequence of Mitogen-activated protein kinase 9 (Homo sapiens) (P45984 whole entry, looked up): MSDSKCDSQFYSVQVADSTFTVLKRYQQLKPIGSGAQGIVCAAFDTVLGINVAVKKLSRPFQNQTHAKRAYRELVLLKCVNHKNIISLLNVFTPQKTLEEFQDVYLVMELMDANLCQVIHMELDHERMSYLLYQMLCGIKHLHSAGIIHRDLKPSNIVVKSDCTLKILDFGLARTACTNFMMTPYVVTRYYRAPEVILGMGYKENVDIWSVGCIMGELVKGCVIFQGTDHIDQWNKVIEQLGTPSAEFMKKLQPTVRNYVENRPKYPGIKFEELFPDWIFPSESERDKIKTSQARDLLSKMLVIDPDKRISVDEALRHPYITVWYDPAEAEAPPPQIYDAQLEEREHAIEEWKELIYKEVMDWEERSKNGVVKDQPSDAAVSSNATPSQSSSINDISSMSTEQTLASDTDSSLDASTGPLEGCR

In the case of `Nc1c(C(=O)c2cccc(OC[C@@H](O)CO)c2)cnn1-c1ccc(F)cc1`, the Activity was “inactive”.
